Test results as given in patent US20090069271A1, “WOOD TREATMENT” (priority 2005, published 2009).

Experiment: not given
Details: aqueous dioxane; tri-(dicyclohexylcarbinyl) borate = 1; cited from earlier work

SMILES | Relative rate of hydrolysis
c1ccc([C@H]2CCCC[C@H]2OB(O[C@@H]2CCCC[C@@H]2c2ccccc2)O[C@@H]2CCCC[C@@H]2c2ccccc2)cc1 (relative stereo) [Tri-(cis-2-phenylcyclohexyl) borate] | 28.2
c1ccc([C@@H]2CCCC[C@H]2OB(O[C@@H]2CCCC[C@H]2c2ccccc2)O[C@@H]2CCCC[C@H]2c2ccccc2)cc1 (relative stereo) [Tri-(trans-2-phenylcylohexyl) borate] | 40.0
CCCCCCC(C)OB(OC(C)CCCCCC)OC(C)CCCCCC (centres unmarked) [Tri-2-octyl borate] | 4.33 × 10^3
CCCCC(CC)OB(OC(CC)CCCC)OC(CC)CCCC (centres unmarked) [Tri-3-heptyl borate] | 415
CCC(CC)OB(OC(CC)CC)OC(CC)CC [Tri-3-pentyl borate] | 483
C#CC1(OB(OC2(C#C)CCCCC2)OC2(C#C)CCCCC2)CCCCC1 [Tri-(1-ethynylcyclohexyl) borate] | 4.29 × 10^4
CC(C)CC(C)CC(CC(C)C)OB(OC(CC(C)C)CC(C)CC(C)C)OC(CC(C)C)CC(C)CC(C)C (centres unmarked) [Tri-(2,6,8-trimethyl-4-nonyl) borate] | 4.83
C1CCC(OB(OC2CCCCC2)OC2CCCCC2)CC1 [Tri-(2-cyclohexyl) borate] | 3.67
CCCCC(CC)COB(OCC(CC)CCCC)OCC(CC)CCCC (centres unmarked) [Tri-(2-ethylhexyl) borate] | 2.77 × 10^3
c1ccc(C2CCCCC2OB(OC2CCCCC2c2ccccc2)OC2CCCCC2c2ccccc2)cc1 (centres unmarked) [Tri-(2-phenylcyclohexyl) borate] | 34.1
C1CCC(C(OB(OC(C2CCCCC2)C2CCCCC2)OC(C2CCCCC2)C2CCCCC2)C2CCCCC2)CC1 [Tri-(dicyclohexylcarbinyl) borate] | 1
CC(C)CC(CC(C)C)OB(OC(CC(C)C)CC(C)C)OC(CC(C)C)CC(C)C [Tri-(diisobutylcarbinyl) borate] | 5.86
CC(C)CC(C)OB(OC(C)CC(C)C)OC(C)CC(C)C (centres unmarked) [Tri-(methylisobutylcarbinyl) borate] | 2430
CCCC1OB(OCC(CC)C(CCC)OB2OCC(CC)C(CCC)O2)OCC1CC (centres unmarked) [Tri-(octylene glycol) biborate] | 3.92 × 10^5
CCCCCCOB(OCCCCCC)OCCCCCC [Tri-hexyl borate] | 2.02 × 10^5
CCCCCOB(OCCCCC)OCCCCC [Tri-n-amyl borate] | 5.87 × 10^5
CCCCCCCCCCCCOB(OCCCCCCCCCCCC)OCCCCCCCCCCCC [Tri-n-dodecyl borate] | 2.77 × 10^4
CCCCCCCCOB(OCCCCCCCC)OCCCCCCCC [Tri-n-octyl borate] | 3.67 × 10^4
CCC(C)OB(OC(C)CC)OC(C)CC (centres unmarked) [Tri-s-butyl borate] | 1.68 × 10^5
CCC(C)(C)OB(OC(C)(C)CC)OC(C)(C)CC [Tri-t-amyl borate] | 449
CC(C)(C)OB(OC(C)(C)C)OC(C)(C)C [Tri-t-butyl borate] | 1370
CCCCCCCC/C=C\CCCCCCCCOB(OCCCCCCCC/C=C\CCCCCCCC)OCCCCCCCC/C=C\CCCCCCCC [Trioleyl borate] | 3.57 × 10^4
CCCCCCCCCCCCCCCCCCOB(OCCCCCCCCCCCCCCCCCC)OCCCCCCCCCCCCCCCCCC [Tristearyl borate] | 2.71 × 10^4

Same assay, conditions: aqueous dioxane; tri-(dicyclohexylcarbinyl) borate = 1; listed as Tri-dodecyl borate; cited from earlier work

SMILES | Relative rate of hydrolysis
CCCCCCCCCCCCOB(OCCCCCCCCCCCC)OCCCCCCCCCCCC [Tri-n-dodecyl borate] | 2.77×10^4

Experiment: not given
Details: base catalysed hydrolysis, 60% aqueous dioxane at 21°; cited from earlier work

SMILES | Half-life | Half-life(sec.)
CCCCCCOB(OCCCCCC)OCCCCCC [Tri-hexyl borate] | 2.9 s | 
CCCCCOB(OCCCCC)OCCCCC [Tri-n-amyl borate] | 1.0 s | 
CCCCOB(OCCCC)OCCCC [Tri-n-butyl borate] |  | Too fast to measure
CCCCCCCCCCCCOB(OCCCCCCCCCCCC)OCCCCCCCCCCCC [Tri-n-dodecyl borate] | 21.3 s | 
CCCCCCCCOB(OCCCCCCCC)OCCCCCCCC [Tri-n-octyl borate] | 16.0 s | 
CCCOB(OCCC)OCCC [Tri-n-propyl borate] |  | Too fast to measure
CCOB(OCC)OCC [Triethyl borate] |  | Too fast to measure
COB(OC)OC [Trimethyl borate] |  | Too fast to measure
CCCCCCCCCCCCCCCCCCOB(OCCCCCCCCCCCCCCCCCC)OCCCCCCCCCCCCCCCCCC [Tristearyl borate] | 21.7 s | 

Experiment: Pseudo three-dimensional hydrolysis test, sample layered on distilled water
Assay type: physicochemical
Details: sample layered on distilled water in a test tube; 20 mls sample layered on 10 mls distilled water in 19 mm test tube
Procedure: A pseudo three-dimensional test was made by taking 10 mls of distilled water and placing in a 19 mm diameter test tube. 20 mls of sample was then layered on the water; the rate of hydrolysis was then measured. This was done by taking 2 ml samples from the test tube over time, refluxing and titrating the 2 ml samples to get the concentration. The test was with n-butyl di-n-propyl borate, which should have similar kinetic properties to tri-n-propyl borate and tri-n-butyl borate. The test was also done with tri-n-octyl borate.
It can be seen that there is an exponential difference in the half-life when changing the conditions of hydrolysis. For the commercial method of which the patent covers, the hydrolysis rate is slow enough to give consistent uptake of product in the timber and provide stable solution concentration.

SMILES | Half-life
CCCCOB(OCCCC)OCCCC [Tri-n-butyl borate] | 89 h
CCCCOB(OCCC)OCCC [n-butyl di-n-propyl borate] | 6.5 h
